Laboratory results from ChEMBL document CHEMBL3507680, “University of Dundee, Gates Library screen for HepG2 cell viability”.

Test: Human HepG2 cell viability assay in 384 well format
Assay type: toxicity, cell-based
Set-up: dose 125 nL, time 70.5 hour; cytotoxicity at 70.5 h: concentration not given beside the values
Conditions: HepG2 cells, read-out: Inhibition

Compound | cytotoxicity at 70.5 h
CN1CCC/C1=N\S(=O)(=O)c1ccc(NC(=O)c2ccco2)cc1 | 11.9%
CS(=O)(=O)N1CCN(c2cnnc(N3CCCC3)c2)CC1 | -12.9%
CCc1nnc(CNCC2CCN(CC(O)c3ccccc3)CC2)o1 (stereo not drawn) | 15.4%
COc1c(CNCc2cccc(C(=O)N(C)C)c2)c(C)nn1C | 5.09%
Cc1cnccc1CNCc1ccc(OC23CCCN(CC2)C3)cc1 (stereo not drawn) | -6.06%
CN1C(=O)C2(NC(=O)c3ccccc3O2)c2ccccc21 (stereo not drawn) | -16.5%
CCOc1ccc(NC(C)C(=O)Nc2cc(C)no2)cc1 (stereo not drawn) | -5.28%
Fc1cnc(N2CC[C@@H]3O[C@@H](COCc4ccccn4)CC[C@@H]32)nc1 | 7.99%
CN(Cc1ccc(CCC(C)(C)O)cc1)Cc1cccc(O)c1 | -8.03%
CCc1nc(CN2CCCN(C(=O)c3cc(C)on3)CC2)cs1 | -1.87%
O=C(c1cccc2c1OCCO2)N1CCCC(n2ccnc2)C1 (stereo not drawn) | -5.73%
Cc1ccc(NC(=O)N2CCOC(C)(c3cnn(C)c3)C2)c(C)c1 (stereo not drawn) | -3.64%
COc1cc(Cl)cc(CN2CCCC(N3CCOCC3)C2)c1OC (stereo not drawn) | -5.79%
NC1CCN(C(=O)c2cnc(Cc3c(Cl)cccc3Cl)nc2O)C1 (stereo not drawn) | 13.3%
CCc1c(C(=O)O)nnn1-c1cc(C)ccc1C | -2.96%
O=C(c1ccncc1)N1CCCC2(CCN(c3cccnc3)C2=O)C1 (stereo not drawn) | 0.0433%
COCc1ccc(CN[C@H]2C[C@@H](Cc3cc(CCO)on3)C2(C)C)o1 | -1.61%
COCC(=O)N1C[C@H]2CNC[C@@]2(C(=O)NCc2snnc2C)C1 | -6.27%
O=C(NCCc1c[nH]cn1)c1ccc2c(c1)C(=O)N(C1CC1)C2=O | 3.29%
O=C(O)c1cc(NS(=O)(=O)c2ccccc2F)ccc1N1CCSCC1 | -8.7%
COCCN1C(=O)[C@H]2CC[C@@H]1CN(C(=O)CCc1n[nH]c(C)c1C)C2 | -13.9%
COc1ccc2c(c1)OCC(C(=O)NCc1nc3c(s1)CCCC3)C2 (stereo not drawn) | -8.87%
O=C(N1CCOCC1)[C@@]12CCO[C@@H]1CCN(C1CCOCC1)C2 | -4.69%

Compound | cytotoxicity at 70.5 h
CCOCc1cncc2c1CCN(S(=O)(=O)c1ccc(C)cc1)C2 | -2.29%
O=C(NCCCn1cncn1)c1ccc(-c2ccccc2)[nH]c1=O | -11.4%
CCN(C)C[C@@H]1CN(C(=O)NC2CCCCC2)C[C@@H]1CO | -10.1%
O=C(Cc1ccn[nH]1)N1CCc2cc(Br)sc2C1 | -6.46%
CN1CCNC(=O)C12CCN(Cc1ccco1)CC2 | -8.79%
CN1CCC2(CC1)CN(C(=O)c1cccc3cccnc13)CCN2C | -8.6%
CC(=O)N1CCCCCC1C1CCN(Cc2nc(C3CC3)no2)CC1 (stereo not drawn) | 0.683%
COc1ncccc1C(=O)N(C)Cc1nc(-c2ccccn2)no1 | -8.07%
O=C(O)c1cc2c(nc1-c1ccsc1)CCN(C1CCOC1)CC2 (stereo not drawn) | -12.7%
CS(=O)(=O)Cc1cccc(C(=O)N2CCCC(n3cccn3)C2)c1 (stereo not drawn) | 17.8%
Cn1cnc2cc(C(=O)NS(=O)(=O)CC3CCCC3)ccc21 | 0.122%
O=C(CCn1ncc2ccccc21)N1CCCC(Cc2cccnc2)C1 (stereo not drawn) | -5.11%
CC(C)CCC(=O)N1CCC2(CC1)OCCO2 | -4.64%
CCOC(=O)N1CCN(C(=O)Cc2c(C)nc(C)[nH]c2=O)CC1 | 13.6%
Cc1nc[nH]c1CN(Cc1ccccc1)Cc1nccs1 | -6.42%
CS(=O)(=O)N1CC2(CCN(C(=O)c3csnn3)CC2)c2ccccc21 | -4.79%
NC(=O)c1ccc(NC2CCOC3(CCCC3)C2)nn1 (stereo not drawn) | 17.2%
Cc1cnn(C(C)C2CC2)c1NC(=O)c1ccncc1 (stereo not drawn) | -8.36%
CCN1CCN(C(=O)c2ccc3c(c2)OCC(=O)N3)[C@H]2CS(=O)(=O)C[C@H]21 | -12.3%
CCN(Cc1cccnc1)C1CCN(c2ccccc2)C1=O (stereo not drawn) | -3.8%
O=C(CCc1ccsc1)N1CCCC(n2cncn2)C1 (stereo not drawn) | -11.8%
c1coc(CN2CCC3(CCOCC3COCC3CC3)CC2)c1 (stereo not drawn) | 2.33%
CC(C)c1noc(CCCC(=O)N2CCN(S(C)(=O)=O)CC2)n1 | -5.72%

Compound | cytotoxicity at 70.5 h
Cc1cc(C)n(CC2CCCN2C(=O)CCCNc2ncccn2)n1 (stereo not drawn) | -0.613%
CN(C)C(=O)c1coc(COc2ccccc2)n1 | 15.6%
CS(=O)(=O)NC1CCN(C(=O)NCc2cc[nH]n2)CC1 | -8.42%
CC(=O)Nc1ccc(CN(C)Cc2snnc2C)cc1 | -5.27%
CC(Cn1ccnc1)NS(=O)(=O)c1ccc(C#N)c(Cl)c1 (stereo not drawn) | -9.17%
O=C(Nc1cnccn1)[C@@H]1C[C@H]2OCC[C@H]2N(Cc2ccsc2)C1 | -7.42%
CCC(CC)N(Cc1ccc2c(c1)OCO2)C(=O)c1ccc(=O)n(C)c1 | -1.82%
CCOc1ccc(N2CCCN=C2NC(=O)c2cccc(OC)c2)cc1 | 2.56%
O=C1NCCCN1Cc1nc(-c2ccc(N3CCCCC3)cc2)no1 | -1.73%
CC(O)CN1CCC(CNCc2cccc(C(N)=O)c2)CC1 (stereo not drawn) | -4%
O=C(NCc1n[nH]c2c1CCCCC2)c1cnn2c1CCCC2 | -12.2%
CC1=CC[C@@H]2CN(C(=O)c3ccc(-c4nc[nH]n4)cc3)C[C@@H]2C1 | 11%
Cc1c(NCCO)cccc1OC1CCCC1 | -2.5%
CCn1nc(C)cc1NC(=O)CCn1nc(C)c2ccccc21 | -10.1%
CNC(=O)[C@H]1C[C@@H]2CN(C(=O)c3ccc(C)o3)C[C@@H]2N1S(C)(=O)=O | -9.33%
Fc1cnc(N2CC[C@@H](N3CCOCC3)[C@@H]2Cc2ccncc2)nc1 | 15.9%
CC(=O)NCCc1ncnn1-c1ccc(F)c(Cl)c1 | 7.55%
CCCS(=O)(=O)NC1CCc2c(ccc(=O)n2CC2CC2)C1 (stereo not drawn) | -8.69%
Oc1ccc(Cl)cc1CNCc1ccccc1C(F)(F)F | -2.09%
Cc1nc(-c2ccc(Cl)s2)sc1C(=O)N(C)CC(N)=O | 11.9%
COc1ccc(CCNC(=O)C(C)Nc2cccc(C)c2C)cc1 (stereo not drawn) | -4.88%
CCc1n[nH]c(C2CN(C(=O)CCc3cccs3)CCO2)n1 (stereo not drawn) | 13.9%
CC(C)(C)c1noc(CCC(=O)N2CCN(Cc3ccco3)CC2)n1 | -0.998%

Compound | cytotoxicity at 70.5 h
CC/N=c1/c(NC(=O)C2CC2)c(O)oc2ccccc12 | 35.8%
CC(C)N1CCC(N2CCN(C3CCCCC3)CC2CCO)CC1 (stereo not drawn) | -10.5%
Cn1ncc(N2CCOC(CCNC(=O)CO)C2)cc1=O (stereo not drawn) | 13.3%
CC(Cn1cccn1)NCC(=O)NC1CCOCC1 (stereo not drawn) | 6.94%
COCCN1CCCC(O)(CN2CCN(c3ccncc3C)CC2)C1=O (stereo not drawn) | 5.87%
Cc1ccc(CC(NC(=O)CCS(C)(=O)=O)c2ccccn2)cc1 (stereo not drawn) | 0.0206%
COCC1CN(Cc2ccccn2)Cc2nn(C)cc21 (stereo not drawn) | -7.74%
O=c1n(Cc2ccccn2)nc(C2CCNCC2)n1Cc1ccccc1 | 1.51%
CC(C)C(NC(=O)NCC1CC1)c1nnc2n1CCC2 (stereo not drawn) | 3.11%
NCc1cnn(-c2ccccc2C(=O)NCCc2ccncc2)c1 | -7.18%
COc1cn(-c2ccccc2)nc1C(=O)NCCN1CCCC(C)C1 (stereo not drawn) | -7.85%
COc1ccc2[nH]cc(C(=O)N3CC[C@H](CO)[C@@H](O)C3)c(=O)c2c1 | -6.72%
Cn1cc(-c2nc(CN3CCc4c(ncn4C4CC4)C3)cs2)cn1 | -15.2%
COc1cc(CNc2cnn(CC(F)F)c2)ccc1O | 26.6%
COCC1c2c(cnn2CC2CC2)CCN1Cc1ccsc1 (stereo not drawn) | -20.6%
CCS(=O)(=O)CCN1CCN(C(C)c2cccnc2)CC1 (stereo not drawn) | 19.9%
O=C(Nc1cccc(F)c1)N1CCC(CO)(Nc2ccccc2)CC1 | -5.91%
CCc1c(C)nc2ccccc2c1N1CCC(C(=O)NC)CC1 | -5.91%
CC(CN1CCOC1=O)NC(=O)c1cccc(C#N)c1 (stereo not drawn) | -3.83%
CSCC1CCCN1CCc1ccncc1 (stereo not drawn) | 27.5%
Cc1ccc(OCCCNC(=O)CN(C)c2ccc(C#N)cn2)cc1 | 3.18%
COc1ccc(CC(=O)N2CCCC(c3cc(C)[nH]n3)C2)cc1 (stereo not drawn) | -3.16%
O=C(O)CN1CCC(c2ccccc2)C1 (stereo not drawn) | -13.6%

Compound | cytotoxicity at 70.5 h
Cc1ccc([C@@H]2CN(C(=O)c3ccccc3C)C[C@H]2N(C)C)cc1 | 2.46%
CO[C@@H]1CN(c2ccccc2)S(=O)(=O)[C@@]12CCN(C(C)=O)C2 | -10.5%
COc1c(C)cnc(CN2CCCC2c2noc(C3CC3)n2)c1C (stereo not drawn) | 1.14%
COc1cc2c(cc1CNCc1cccnc1-n1cccn1)OC(C)C2 (stereo not drawn) | 16.8%
CN(C)CCn1ccnc1C1CCCN(C(=O)CCc2cccnc2)C1 (stereo not drawn) | -4.26%
Cc1noc(C)c1CN(C)CCC(=O)N1CCc2sccc2C1 | -4.03%
Cc1csc(NC(=O)[C@@H]2C[C@H]3[C@H](CCN3c3ncccn3)O2)n1 | 18.3%
O=C(c1cnccn1)N1CCCC2(COCCN(CC3CC3)C2)C1 (stereo not drawn) | -20.3%
CCOc1ccc(C(=O)N2CCN(c3nccn3C)CC2)cc1 | -0.809%
c1cnnc(N[C@@H]2CC[C@@H]3CN(Cc4ccc5[nH]ccc5c4)C[C@@H]32)c1 | 2.98%
COC1COC2(CCN(C(=O)c3ncccn3)CC2)C1 (stereo not drawn) | 14.8%
COC(=O)c1ccc(N2CCN(C(=O)C(C)C)C(C)C2)cc1 (stereo not drawn) | 26.6%
Cc1noc(C)c1CN(C)C(=O)c1cnc(C2CC2)nc1O | 8.69%
Cc1noc(C)c1CNC1CCN(c2ccccc2OC(F)F)C1 (stereo not drawn) | -3.18%
O=C(NCc1ncc[nH]1)c1c(F)cccc1I | 11.2%
COc1ccc(CN(Cc2cncn2C)CC2CCCO2)cc1 (stereo not drawn) | -7.47%
CS(=O)(=O)N1CCC2(CC1)NCCn1c(-c3ccccc3)cnc12 | -7.68%
Cn1cc(S(=O)(=O)Nc2ccc(Cl)cn2)cc1C(N)=O | -3.76%
O=c1ccc(-n2ccnc2)nn1CCNS(=O)(=O)c1ccc(Cl)s1 | 3.04%
c1cnnc(N2CCCC(NCc3nnc(-c4ccco4)o3)C2)c1 (stereo not drawn) | 3.16%
Cn1cccc1C(=O)N[C@@H]1CN(S(C)(=O)=O)[C@@H]2COC[C@@H]21 | -8.37%
